Results reported in patent US20130089536A1, “PHARMACEUTICAL COMPOSITION TO PREVENT AND TREAT ALZHEIMER'S DISEASE COMPRISING GCP II MUTANT” (KOREA CENTER FOR DISEASE CONTROL AND PREVENTION, priority 2011, published 2013).
Entries after “also recorded” stand apart in the source; their conditions may differ.

Tests used:
[1] = target: recombinant human GCPII (rhGCP II) (Homo sapiens, UniProt Q04609); test: Effect of 2-PMPA on Aβ1-40 cleavage of rhGCP II (ELISA); assay type: biochemical; details: 2-PMPA added at different concentrations, FIG. 1a
Procedure: Vectors encoding the hGCP II and various mutant hGCP II genes were transfected into PC3 cells in a 12-well plate. About 30 hr later, the culture medium was changed with fresh one treated with Aβ1-40 of Aβ1-42 peptide in the presence or absence of 2-PMPA, and the cells were incubated for another 8 hr. The medium was collected and assayed for residual Aβ1-40 or Aβ1-42 using ELISA kits (Invitrogen) following manufacturer's protocol. Cells transfected with the empty pcDNA3 empty vector were used as the negative control.

GCP II = GCP II (Homo sapiens, UniProt Q04609); test: NAAG cleavage assay with or without 2-PMPA; assay type: biochemical; details: 20 μM [3H]NAAG, 20 nM 2-PMPA, 1 hr at 37° C.; FIG. 1b
Procedure: The activity of endogenous or over-expressed Glutamate carboxypeptidase II protein (GCP II) was measured as follows. Cell lysate (50 μg) was incubated with 20 μM of N-acetyl-L-aspartyl-L-[3,4-3H] glutamate (NAAG; NEN corporation) with or without 20 nM 2-PMPA, a GCP II specific inhibitor, in a total volume of 100 μl containing 50 mM HEPES and 150 mM NaCl for 1 hr at 37° C. Upon completion of the reaction, sample mixture was loaded on AG 1-X8 anion-exchange resin (Biorad) prepared in 96 well columns, followed by centrifugation at 2000 rpm for 5 min. The resin bound with the sample mixture was eluted with 0.5 mM formate (100 ml) and centrifuged at 2000 rpm for 5 min. All the eluted samples were mixed with 1 ml of scintillation solution (Optiphase HiSafe; Wallac) and then radioactivity was measured by scintillation counter (Wallac Inc.).

lentiviral GCP II = target: T1, lentiviral GCP II (Homo sapiens, UniProt Q04609); assay type: cell-based
T1 construct: host or cells: rat primary astrocytes (lentiviral infection)

Aβ1-40 and Aβ1-42 = Aβ1-40 and Aβ1-42 levels in cortical membrane fractions of 2-PMPA treated APP Swedish/PS1ΔE9 transgenic mice (ELISA); assay type: in vivo, mouse; details: 10 mg/kg intraperitoneally, 2×/wk for 1 month, 8-month old APP Swedish/PS1ΔE9 mice, FIG. 1e
Procedure: (§1) (a, b) rhGCP II was incubated with Aβ40 or NAAG with or without 2-PMPA or EDTA. A(340 or NAAG level was detected by ELISA or NAAG cleavage assay. (c) After lentiviral GCP II was infected into rat primary astrocytes, monomeric Aβ40 was treated to cells. And 2-PMPA was treated thereto at various doses. The Aβ40 concentration in cell growth medium was measured by ELISA assay. (d, e) Eight-month old APP Swedish/PS1E9 transgenic mice were injected intraperitoneally with 10 mg/kg of 2-PMPA or PBS 2/wk for 1 month (9 times). Membrane fractions were analyzed by NAAG and ELISA assay.
(§2) Vectors encoding the hGCP II and various mutant hGCP II genes were transfected into PC3 cells in a 12-well plate. About 30 hr later, the culture medium was changed with fresh one treated with Aβ1-40 of Aβ1-42 peptide in the presence or absence of 2-PMPA, and the cells were incubated for another 8 hr. […]
To investigate the effect of 2-PMPA in the mouse brain, 8-month old APP Swedish/PS1Δ9 mice transfected by the same manner as described in Example <1-6> were treated nine times with 2-PMPA (10 mg/kg, intraperitoneally, 2/wk for 1 month) or the same amount of PBS. Aβp1-40 and Aβ1-42 levels in the cortical membrane fractions were analyzed by the same manner as described in Example <1-3>. NAAG cleavage activity of GCP II was measured by the same manner as described in Example <1-4>.

[2] = NAAG hydrolysis by GCP II mutants, lysate of transfected H4 cells; assay type: biochemical; details: H4 cell lysate, [3H]-labeled NAAG 20 μM, FIG. 3a
Procedure: The inventors of the present invention also investigated the changes of enzyme activity of GCP II mutant. To analyze enzyme activity of various mutants, mutant proteins with a substitution in the S1′ pocket (R210A, K699S) or S1 pocket (R536L, G548P) were transfected in H4 cells. To measure NAAG hydrolysis, cell lysate was incubated with [H]^3-labeled NAAG (20 μM) and GCP II specific […]. […] Additionally, to examine the effect of Aβ on NAAG cleavage of GCP II, rhGCP II was incubated with [H]^3-labeled NAAG (20 μM) and Aβ peptides at the same time. As a result, NAAG cleavage activity of GCP II was not affected by Aβ peptide (see FIG. 3b).
The activity of endogenous or over-expressed Glutamate carboxypeptidase II protein (GCP II) was measured as follows. Cell lysate (50 μg) was incubated with 20 μM of N-acetyl-L-aspartyl-L-[3,4-3H] glutamate (NAAG; NEN corporation) with or without 20 nM 2-PMPA, a GCP II specific inhibitor, in a total volume of 100 μl containing 50 mM HEPES and 150 mM NaCl for 1 hr at 37° C. Upon completion of the reaction, sample mixture was loaded on AG 1-X8 anion-exchange resin (Biorad) prepared in 96 well columns, followed by centrifugation at 2000 rpm for 5 min. […] All the eluted samples were mixed with 1 ml of scintillation solution (Optiphase HiSafe; Wallac) and then radioactivity was measured by scintillation counter (Wallac Inc.). […]

Aβ [3] = test: Aβ clearance activity of GCP II mutants, lysate of transfected PC3 cells, dot blotting and western blotting (6E10); assay type: biochemical; details: cell lysate 48 hr after transfection, Aβ 2 μM, overnight, FIGS. 4a, 4b
Procedure: (§3) To identify Aβ clearance activity of GCP II mutants, various mutant plasmids were transfected in PC3 cells known not to express endogenous GCP II. After 48 hr, the cell lysates were mixed with Aβ (2 μM) and incubated for overnight. The remaining Aβ peptides were detected by dot blotting and western blotting using 6E10 antibody. […] The inventors of the present invention also measured cleavage activity of GCP II on exogenously treated Aβ peptides in culture medium by ELISA. One day after transfection, 1 ng/ml Aβ was treated into the medium, followed by incubation for 8 hr at 37° C. Similarly with western blotting, residual Aβ was reduced by K699S but not by G548P (see FIG. 4c).
48 hrs later, the cell lysate was mixed with Aβ (2 μM) and incubated for overnight.
To quantify the remaining Aβ peptides, the mixture of cell lysate and Aβ (2 μM) proceeded to dot blotting and the result was analyzed by the same manner as described in Example <2-2>. 1 μl of the mixture of cell lysate and Aβ (2 μM) was dropped on nitrocellulose membrane, which was then completely dried. The dried membrane proceeded to blocking with TBS-T containing 5% nonfat dry milk at room temperature for 1 hr. Then, the membrane was incubated with anti-Aβ antibody, 6E10 (SIGNET; SIG-39300, 1:2000) in 5% nonfat dry milk at 4° C. for overnight. […] After washing three times, proteins were detected using chemiluminescent substrate.

Aβ [4] = test: Cleavage of exogenously treated Aβ in culture medium of transfected cells, ELISA; assay type: cell-based; details: 1 ng/ml Aβ one day after transfection, 8 hr at 37° C., FIG. 4c
Procedure: as §3
as §2, with “hr. The medium was collected and assayed for residual Aβ1-40 or Aβ1-42 using ELISA kits (Invitrogen) following manufacturer's protocol. Cells transfected with the empty pcDNA3 empty vector were used as the negative control.” for “hr.”

Aβ1-40 = Aβ1-40 cleavage by rhGCP II, residual Aβ by ELISA; assay type: biochemical; details: rhGCP II incubated with Aβ1-40, FIG. 1a
Procedure: as §1
As a result, rhGCP II cleaved Aβ1-40 peptides about 80 percent compared with the control, but 2-PMPA had no effect on Aβ1-40 cleavage of GCP II (see FIG. 1a). […] To investigate the effect of 2-PMPA in the mouse brain, 2-PMPA was treated into transgenic AD model mice. The inventors of the present invention used 2-PMPA (10 mg/kg, intraperitoneally, 2×/wk for 1 month) to treat 8-month old APP Swedish/PS1Δ9 transgenic mice. Aβ1-40 and Aβ1-42 levels in the cortical membrane fractions were analyzed by ELISA and NAAG cleavage activity of GCP II was measured by NAAG assay. As a result, cleavage of NAAG was reduced about 90 percent in 2-PMPA treated mouse compared with PBS control (see FIG. 1d). However, total levels of Aβ1-40 and Aβ1-42 were not changed by the treatment of 2-PMPA (see FIG. 1e). […]

Chain of GCP II (Q04609 whole entry): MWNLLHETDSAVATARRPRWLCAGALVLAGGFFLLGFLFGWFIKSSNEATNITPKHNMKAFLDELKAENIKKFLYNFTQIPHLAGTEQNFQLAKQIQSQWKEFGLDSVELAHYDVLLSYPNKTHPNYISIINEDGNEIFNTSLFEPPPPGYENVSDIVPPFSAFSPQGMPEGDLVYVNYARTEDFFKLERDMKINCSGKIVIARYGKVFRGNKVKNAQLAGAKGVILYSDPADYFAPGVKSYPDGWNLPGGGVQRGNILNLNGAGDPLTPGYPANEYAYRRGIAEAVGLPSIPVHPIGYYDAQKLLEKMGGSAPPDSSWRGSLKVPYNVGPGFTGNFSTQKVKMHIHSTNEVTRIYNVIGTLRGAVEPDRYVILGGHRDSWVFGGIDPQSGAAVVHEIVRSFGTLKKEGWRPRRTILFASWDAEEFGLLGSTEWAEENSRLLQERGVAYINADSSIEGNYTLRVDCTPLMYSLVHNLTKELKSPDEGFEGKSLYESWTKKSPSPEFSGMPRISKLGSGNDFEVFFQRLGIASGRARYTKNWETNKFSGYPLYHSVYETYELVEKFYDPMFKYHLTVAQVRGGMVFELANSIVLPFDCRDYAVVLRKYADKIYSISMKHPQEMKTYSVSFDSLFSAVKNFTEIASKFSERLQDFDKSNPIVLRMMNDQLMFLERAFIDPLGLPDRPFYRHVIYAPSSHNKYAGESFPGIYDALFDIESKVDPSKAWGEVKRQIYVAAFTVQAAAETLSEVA
Chain of recombinant human GCPII (rhGCP II) (Q04609 whole entry): as above
T1 sequence (Q04609 whole entry): as above

## O=C(O)CCC(CP(=O)(O)O)C(=O)O (stereo not drawn) [2-PMPA, 2-(Phosphonomethyl) pentanedioic acid]
[1]
  effect on Aβ1-40 cleavage of rhGCP II: no effect
GCP II
  hydrolysis of NAAG by GCP II: completely blocked
Lentiviral GCP II
  Aβ1-40 cleavage of lentiviral GCP II: did not block
Aβ1-40 and Aβ1-42
  total level of Aβ1-40: not changed
  total level of Aβ1-42: not changed

## G548P: GCP II mutant protein with a substitution in the S1 pocket
[2]; listed as R548P
  activity of NAAG hydrolysis maintained compared with wild type GCP II: about 40%
Aβ [3]
  Aβ cleavage activity compared with wild type: lost Aβ cleavage activity; also recorded: did not; also recorded: lost its Aβ clearance activity
Aβ [4]
  residual Aβ in culture medium: not

## K699S: GCP II mutant: 699th amino acid Lysine replaced with Serine, SEQ ID. NO: 2; S1′ pocket mutant
[2]
  activity of NAAG hydrolysis (in words): completely lost; also recorded: did not cleave
Aβ [3]
  Aβ cleavage activity compared with wild type: higher Aβ cleavage activity than the wild type; also recorded: cleaved; also recorded: cleaved Aβ more than wild type
Aβ [4]
  residual Aβ in culture medium: reduced

## rhGCP II: recombinant human GCPII (glutamate carboxypeptidase II), wild type
Aβ1-40
  Aβ1-40 peptide cleaved compared with control: about 80%
